In ChEMBL document CHEMBL4402553, “Recent advances in the discovery and development of glyoxalase I inhibitors” (Bioorg Med Chem, 2020) one finds Ki and IC50 data, which are given here for eight compounds.

As a reminder, the Ki is the equilibrium dissociation constant of an inhibitor or competing ligand from its target. For orientation: IC50 means the concentration that inhibits the measured activity by half.

For test [1], the target named is Lactoylglutathione lyase (Mus musculus, UniProt Q9CPU0). Nature of the test: Competitive inhibition of recombinant mouse His-tagged Glyoxalase-1 using GSH and MGO as substrate by spectrophotometric method.
Test [2] addresses T1, Lactoylglutathione lyase (Homo sapiens, UniProt Q04760). Nature of the test: Competitive inhibition of human Glyoxalase-1 using GSH and MGO as substrate.
Test [3] has as its target T1, Lactoylglutathione lyase. Nature of the test: Inhibition of human Glyoxalase-1.
Test [4] addresses T1, Lactoylglutathione lyase. The experiment in a line: Inhibition of Glyoxalase-1 (unknown origin).
Test [5] deals with T1, Lactoylglutathione lyase. The experiment in a line: Competitive inhibition of human Glyoxalase-1 using GSH and MGO as substrate by Michaelis-Menten analysis.

T1 sequence (Q04760 whole entry): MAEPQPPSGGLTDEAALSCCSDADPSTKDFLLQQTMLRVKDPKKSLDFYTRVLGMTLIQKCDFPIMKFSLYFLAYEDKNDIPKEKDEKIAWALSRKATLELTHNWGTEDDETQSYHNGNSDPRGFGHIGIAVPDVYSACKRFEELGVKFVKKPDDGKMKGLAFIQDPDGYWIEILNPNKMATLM
Sequence of Lactoylglutathione lyase (Mus musculus, UniProt Q9CPU0) (Q9CPU0 whole entry): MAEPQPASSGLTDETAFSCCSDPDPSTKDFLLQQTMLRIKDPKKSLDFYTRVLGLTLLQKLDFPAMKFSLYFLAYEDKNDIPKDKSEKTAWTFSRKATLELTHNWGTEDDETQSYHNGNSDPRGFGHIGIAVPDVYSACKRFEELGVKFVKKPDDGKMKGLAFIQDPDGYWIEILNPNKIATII

Take `COC(=O)c1c(C)cc(Oc2cc(C)cc(O)c2O)cc1O`: the inhibition constant Ki in test [1] stood at 230 nM.

In turn, `C#Cc1cccc(N(O)C(=O)CC[C@H](NC(=O)CC[C@H](N)C(=O)O)C(=O)NCC(=O)O)c1` registered a Ki in test [2] of 1 nM.

In test [3], `N[C@@H](CCC(=O)N[C@@H](CSC(=O)N(O)c1ccc(I)cc1)C(=O)NCC(=O)O)C(=O)O` displayed a Ki of 10 nM.

In test [2], `C#Cc1ccc(N(O)C(=O)SC[C@H](NC(=O)CC[C@H](N)C(=O)O)C(=O)NCC(=O)O)cc1` returned a Ki of 7 nM.

As for `NS(=O)(=O)c1ccc2c(c1)S(=O)(=O)NC2=O`, the IC50 in test [4] is 90000 nM. In other words, the double-digit micromolar range.

In turn, `O=C(O)CNC(=O)[C@H](CSC(=O)N(O)c1ccc(Cl)cc1)NC(=O)CC[C@H](NC(=O)CCNC(=O)CCNC(=O)CCNC(=O)CCNC(=O)CCNC(=O)CCNC(=O)CCCCCCC(=O)NCCC(=O)NCCC(=O)NCCC(=O)NCCC(=O)NCCC(=O)NCCC(=O)N[C@@H](CCC(=O)N[C@@H](CSC(=O)N(O)c1ccc(Cl)cc1)C(=O)NCC(=O)O)C(=O)O)C(=O)O` registered a Ki in test [5] of 0.96 nM.

Take `C#Cc1cccc(N(O)C(=O)SC[C@H](NC(=O)CC[C@H](N)C(=O)O)C(=O)NCC(=O)O)c1`: the affinity in test [2], expressed as Ki, was 19 nM.

Turning to `Cc1cc(O)c(O)c(Oc2cc(C)c(C(=O)O)c(O)c2)c1`, the Ki in test [1] amounted to 150 nM.
